Literature values as cited in patent US6881247B2, “Protective barrier coating composition” (priority 2003, dated 2005).

Details: calcium hydroxide

[Ca+2].[OH-].[OH-] [calcium hydroxide, Calcium hydroxide]
pH: 12.4
